# What was measured:
# [1] = tested on: Colletotrichum gloeosporioides; experiment: Antifungal activity against Colletotrichum gloeosporioides assessed as inhibition of mycelium growth at 100 ug/ml after 3 to 4 days; conditions: 72 to 96 h, read-out: GI
# Fusarium solani [2] = experiment: Antifungal activity against Fusarium solani assessed as inhibition of mycelium growth at 100 ug/ml […]; assay type: functional; conditions: 168 h, read-out: GI
# Cytospora [3] = experiment: Antifungal activity against Cytospora sp. assessed as inhibition of mycelium growth at 100 ug/ml after 3 to 4 days; conditions: 72 to 96 h, read-out: GI
# Botrytis cinerea [4] = experiment: Antifungal activity against Botryotinia fuckeliana assessed as inhibition of mycelium growth at 100 ug/ml […]; assay type: functional; conditions: 168 h, read-out: GI
# Alternaria solani [5] = experiment: Antifungal activity against Alternaria solani assessed as inhibition of mycelium growth at 100 ug/ml […]; assay type: functional; conditions: 168 h, read-out: GI
# Botrytis cinerea [6] = experiment: Antifungal activity against Botryotinia fuckeliana assessed as inhibition of mycelium growth after 1 week; assay type: functional, organism-based; conditions: 168 h
# Cytospora [7] = experiment: Antifungal activity against Cytospora sp. assessed as […]; assay type: functional, organism-based
# Alternaria solani [8] = experiment: Antifungal activity against Alternaria solani assessed as inhibition of mycelium growth after 1 week; assay type: functional, organism-based
# [9] = tested on: Colletotrichum gloeosporioides; experiment: Antifungal activity against Colletotrichum gloeosporioides assessed as inhibition of mycelium growth […]; assay type: functional, organism-based
# Fusarium solani [10] = experiment: Antifungal activity against Fusarium solani assessed as inhibition of mycelium growth after 1 week; assay type: functional, organism-based
# [11] = Colletotrichum gloeosporioides, read-out: IC50
# [12] = Cytospora, 168 h, read-out: IC50
# [13] = Alternaria solani, 168 h, read-out: IC50
# [14] = Fusarium solani, 168 h, read-out: IC50
Compound,inhibition of growth at 100 µg/mL [1] [%],inhibition of growth at 100 µg/mL (Fusarium solani [2]) [%],inhibition of growth at 100 µg/mL (Cytospora [3]) [%],inhibition of growth at 100 µg/mL (Botrytis cinerea [4]) [%],inhibition of growth at 100 µg/mL (Alternaria solani [5]) [%],IC50 (Botrytis cinerea [6]) [µg/mL],IC50 (Cytospora [7]),IC50 (Alternaria solani [8]),"IC50 [9, 11] [µg/mL]",IC50 (Fusarium solani [10]),IC50 (Cytospora [7]; [12]) [µg/mL],IC50 (Alternaria solani [8]; [13]) [µg/mL],IC50 (Fusarium solani [10]; [14]) [µg/mL],IC50 [9]
Cn1c(COc2ccc([N+](=O)[O-])cc2)nc2ccccc21,41.3,8.6,19.5,< 5,11.3,,,,,,,,,
CC(=O)c1cccc(OCc2nc3cc([N+](=O)[O-])ccc3n2C)c1,< 5,< 5,51.9,< 5,< 5,,,,,,,,,
Cn1c(COc2ccccc2)nc2cc([N+](=O)[O-])ccc21,< 5,5.91,< 5,7.89,10.5,,,,,,,,,
C=CCc1ccc(OCc2nc3cc([N+](=O)[O-])ccc3n2C)c(OC)c1,< 5,25.4,< 5,24,35.1,,,,,,,,,
CC(=O)n1c(CCl)nc2ccccc21,43.9,21.4,8.05,57.3,11.3,50.9,Not Active,Not Active,> 150,Not Active,,,,
CCCOC(=O)c1ccc(OCc2nc3ccccc3n2C)cc1,20.6,42.2,48.3,< 5,63.6,,,,,,,,,
COc1cc(C(C)=O)ccc1OCc1nc2ccccc2n1C,14.3,< 5,26,59.1,17.9,,,,,,,,,
Cn1c(COc2ccc(C=O)cc2)nc2cc([N+](=O)[O-])ccc21,< 5,< 5,9.48,< 5,16.3,,,,,,,,,
CC(=O)c1ccccc1OCc1nc2cc([N+](=O)[O-])ccc2n1C,< 5,< 5,< 5,< 5,13.8,,,,,,,,,
C=CCc1ccc(OCc2nc3ccccc3n2C)c(OC)c1,38.1,60.4,49.7,47.4,40.1,,,,,,,,,
CNc1ccccc1N(C)C(=O)CCl,41.3,30.1,< 5,64.4,25.3,,,,,,,,,
Cn1c(COc2ccc(F)cc2)nc2ccccc21,62.7,83.9,80.6,47.4,85.2,> 120,,,> 100,,58.2,69.3,31.5,
CCOC(=O)c1ccc(OCc2nc3cc([N+](=O)[O-])ccc3n2C)cc1,< 5,< 5,< 5,< 5,11.3,,,,,,,,,
CC(=O)c1cccc(OCc2nc3ccccc3n2C)c1,41.3,78.5,55.5,82.5,64.5,68.9,,,> 120,,> 100,> 100,82.4,
Cn1c(COc2cccc3ccccc23)nc2ccccc21,22.2,53,62.6,< 5,50.7,,,,,,,,,
CCCOC(=O)c1ccc(OCc2nc3cc([N+](=O)[O-])ccc3n2C)cc1,< 5,19.4,10.9,< 5,8.05,,,,,,,,,
Cn1c(COc2ccc(C=O)cc2)nc2ccccc21,49.2,12,21,< 5,27.8,,,,,,,,,

Compound,inhibition of growth at 100 µg/mL [1] [%],inhibition of growth at 100 µg/mL (Fusarium solani [2]) [%],inhibition of growth at 100 µg/mL (Cytospora [3]) [%],inhibition of growth at 100 µg/mL (Botrytis cinerea [4]) [%],inhibition of growth at 100 µg/mL (Alternaria solani [5]) [%],IC50 (Botrytis cinerea [6]) [µg/mL],IC50 (Cytospora [7]),IC50 (Alternaria solani [8]),"IC50 [9, 11] [µg/mL]",IC50 (Fusarium solani [10]),IC50 (Cytospora [7]; [12]) [µg/mL],IC50 (Alternaria solani [8]; [13]) [µg/mL],IC50 (Fusarium solani [10]; [14]) [µg/mL],IC50 [9]
COc1cc(C=O)ccc1OCc1nc2ccccc2n1C,< 5,24.7,10.2,15.2,40.9,,,,,,,,,
O=S(=O)(c1ccc(Cl)cc1)n1c(CCl)nc2ccccc21,74.6,28.1,27.4,57.3,31.9,> 100,Not Active,Not Active,22.3,Not Active,,,,
Cn1c(CCl)nc2ccccc21,69.6,28.8,45.4,91.5,51.6,68.1,,,80.3,,> 100,> 100,> 150,
Cn1c(COc2ccc(Cl)cc2)nc2cc([N+](=O)[O-])ccc21,6.35,< 5,10.2,100,30.2,13.4,Not Active,Not Active,,Not Active,,,,Not Active
COC(=O)c1ccc(OCc2nc3ccccc3n2C)cc1,< 5,48.2,31,6.43,64.6,,,,,,,,,
Cn1c(COc2ccc(F)cc2)nc2cc([N+](=O)[O-])ccc21,< 5,9.95,22.4,< 5,< 5,,,,,,,,,
Cn1c(COc2cccc3ccccc23)nc2cc([N+](=O)[O-])ccc21,< 5,< 5,< 5,< 5,19.5,,,,,,,,,
CCOC(=O)c1ccc(OCc2nc3ccccc3n2C)cc1,71.7,21.4,79.9,35.9,39.1,> 150,,,49.7,,52.6,> 150,> 150,
Cn1c(COc2ccc(C(C)(C)C)cc2)nc2cc([N+](=O)[O-])ccc21,30.2,< 5,< 5,57.3,30.2,,,,,,,,,
Cc1cc(O)no1 [HYMEXAZOL],49.2,72.5,38.9,100,80.3,8.92,,,> 100,,> 100,14,38.5,
ClCc1nc2ccccc2[nH]1,67.6,6.59,< 5,53.2,25.3,> 100,Not Active,,83.1,Not Active,,> 100,,
Cn1c(COc2ccc3c(c2)OCO3)nc2ccccc21,81,74.5,80.6,88.3,64,63.7,,,55.7,,54.3,> 100,73,
Cn1c(COc2ccc(C(C)(C)C)cc2)nc2ccccc21,63.8,< 5,28.2,64.8,23.6,,,,,,,,,
Cn1c(COc2ccccc2)nc2ccccc21,87.3,84.5,84.2,29.8,75.4,> 150,,,20.8,,50,27.6,18.6,
COC(=O)c1ccc(OCc2nc3cc([N+](=O)[O-])ccc3n2C)cc1,59.1,18,< 5,32.2,< 5,,,,,,,,,
CC(=O)c1ccc(OCc2nc3cc([N+](=O)[O-])ccc3n2C)cc1,< 5,< 5,< 5,38.6,33.5,,,,,,,,,

# From ChEMBL document CHEMBL3045720, “Synthesis and antifungal activity of 2-chloromethyl-1H-benzimidazole derivatives against phytopathogenic fungi in vitro” (J Agric Food Chem, 2013)
